Values quoted from earlier work as cited in patent publication US20040087563A1, “Hormone replacement therapy with cardiovascular protection using antialdosteronic progestins” (priority 2002, published 2004).

Columns and labels:
[1] = patients with severe heart failure already receiving ACE inhibitor therapy
[2] = target: T1, mineralocorticoid receptor (Homo sapiens, UniProt P08235); conditions: compared with spironolactone
T1 sequence (P08235 1-984): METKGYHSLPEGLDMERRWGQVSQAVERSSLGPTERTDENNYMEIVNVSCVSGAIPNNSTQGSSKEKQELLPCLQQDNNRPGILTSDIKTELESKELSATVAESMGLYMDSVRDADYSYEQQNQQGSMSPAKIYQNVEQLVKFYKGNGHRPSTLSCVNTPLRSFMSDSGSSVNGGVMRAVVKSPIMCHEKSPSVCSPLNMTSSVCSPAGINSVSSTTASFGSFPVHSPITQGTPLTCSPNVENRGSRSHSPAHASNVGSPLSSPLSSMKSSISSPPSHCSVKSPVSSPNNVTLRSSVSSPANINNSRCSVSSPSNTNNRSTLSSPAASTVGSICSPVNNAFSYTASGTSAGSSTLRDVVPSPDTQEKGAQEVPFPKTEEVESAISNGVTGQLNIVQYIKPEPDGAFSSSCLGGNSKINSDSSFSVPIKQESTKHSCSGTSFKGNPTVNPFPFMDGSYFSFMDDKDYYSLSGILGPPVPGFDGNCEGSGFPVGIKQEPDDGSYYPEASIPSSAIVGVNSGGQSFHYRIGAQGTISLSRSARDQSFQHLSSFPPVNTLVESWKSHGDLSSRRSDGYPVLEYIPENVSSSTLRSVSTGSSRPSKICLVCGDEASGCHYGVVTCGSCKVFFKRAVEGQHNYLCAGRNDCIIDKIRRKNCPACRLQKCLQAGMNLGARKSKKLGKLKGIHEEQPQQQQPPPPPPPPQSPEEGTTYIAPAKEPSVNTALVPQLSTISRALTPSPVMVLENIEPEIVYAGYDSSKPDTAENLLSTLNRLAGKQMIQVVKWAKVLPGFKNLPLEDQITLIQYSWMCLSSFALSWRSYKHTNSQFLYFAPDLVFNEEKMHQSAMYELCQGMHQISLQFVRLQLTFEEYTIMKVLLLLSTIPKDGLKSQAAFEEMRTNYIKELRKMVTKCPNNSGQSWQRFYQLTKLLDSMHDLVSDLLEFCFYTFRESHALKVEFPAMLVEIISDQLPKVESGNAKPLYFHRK

[3] = test system: renin-angiotensin-aldosterone system; conditions: healthy female volunteers

potency relative to spironolactone (antimineralocorticoid activity) [2]	SMILES	morbidity and mortality [1]	plasma aldosterone levels [3]
	CC(=O)S[C@@H]1CC2=CC(=O)CC[C@]2(C)[C@H]2CC[C@@]3(C)[C@@H](CC[C@@]34CCC(=O)O4)[C@H]12 [Spironolactone, 17-hydroxy-7-alpha-mercapto-3-oxo-17-alpha-pregn-4-ene-21-carboxylic acid gamma-lactone acetate]	decrease the morbidity and mortality	
about 8 times	C[C@]12CCC(=O)C=C1[C@@H]1C[C@@H]1[C@H]1[C@@H]3[C@@H]4C[C@@H]4[C@@]4(CCC(=O)O4)[C@@]3(C)CC[C@@H]12 [Drospirenone, 6β,7β;15β;16β-dimethylene-3-oxo-17α-preg-4-ene-21, 17-carbolactone]		increased
